Test results reported in ChEMBL document CHEMBL5356935, “Discovery of rigid biphenyl Plasmodium falciparum DHFR inhibitors using a fragment linking strategy” (RSC Med Chem, 2023).
Converted amounts (≈) assume the structure as drawn. The source made the active and inactive calls. No cut-off for these calls is given here.

How the values were obtained:
[1] = biological target: Bifunctional dihydrofolate reductase-thymidylate synthase (Plasmodium falciparum K1) (UniProt P13922); assay: Inhibition of wild type Plasmodium falciparum DHFR using DHF as substrate at 500 uM in presence of NADPH by UV-Vis spectrometry analysis
[2] = tested on: Plasmodium falciparum; assay: Inhibition of Plasmodium falciparum DHFR N51I/C59R/S108N/I164L quadruple mutant using DHF as substrate at 500 uM in presence of NADPH by UV-Vis spectrometry analysis relative to control
[3] = biological target: Bifunctional dihydrofolate reductase-thymidylate synthase (Plasmodium falciparum K1) (UniProt P13922); assay: Binding affinity to Plasmodium falciparum DHFR assessed as binding constant (koff) by surface plasmon resonance analysis
[4] = biological target: Bifunctional dihydrofolate reductase-thymidylate synthase (Plasmodium falciparum K1) (UniProt P13922); assay: Binding affinity to Plasmodium falciparum DHFR assessed as binding constant (kon) by surface plasmon resonance analysis
[5] = biological target: T1, Dihydrofolate reductase (Homo sapiens) (UniProt P00374); assay: Inhibition of human DHFR at 500 uM by UV-Vis spectrometry analysis
T1 sequence (whole entry): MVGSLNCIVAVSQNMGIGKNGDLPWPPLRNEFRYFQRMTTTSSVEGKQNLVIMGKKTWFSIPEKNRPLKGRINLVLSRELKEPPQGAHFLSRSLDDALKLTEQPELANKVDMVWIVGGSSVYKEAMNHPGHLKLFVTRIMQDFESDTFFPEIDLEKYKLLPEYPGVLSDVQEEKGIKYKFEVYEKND

[6] = tested on: Plasmodium falciparum; assay: Inhibition of Plasmodium falciparum DHFR N51I/C59R/S108N/I164L quadruple mutant assessed as fold change in inhibition in presence of 2,4-diamino-6-ethylpyrimidin-5-ol
[7] = biological target: Bifunctional dihydrofolate reductase-thymidylate synthase (Plasmodium falciparum K1) (UniProt P13922); assay: Binding affinity to Plasmodium falciparum DHFR assessed as faster binding and release kinetics by surface plasmon resonance analysis
[8] = biological target: Bifunctional dihydrofolate reductase-thymidylate synthase (Plasmodium falciparum K1) (UniProt P13922); assay: Inhibition of wild type Plasmodium falciparum DHFR using DHF as substrate at 500 uM in presence of NADPH by UV-Vis spectrometry analysis relative to control
[9] = tested on: Plasmodium falciparum; assay: Inhibition of Plasmodium falciparum DHFR N51I/C59R/S108N/I164L quadruple mutant using DHF as substrate at 500 uM in presence of NADPH by UV-Vis spectrometry analysis
[10] = tested on: Plasmodium falciparum; assay: Antiplasmodial activity against PYR-sensitive Plasmodium falciparum TM4/8.2 encoding WT DHFR infected in human erythrocytes assessed as inhibition of parasite growth by [3H]-hypoxanthine incorporation assay; assay type: functional, organism-based; details: TM4/8.2, Erythrocyte
[11] = Inhibition of Plasmodium falciparum DHFR N51I/C59R/S108N/I164L quadruple mutant using DHF as substrate assessed as inhibition constant in presence of NADPH by UV-Vis spectrometry analysis
[12] = Cytotoxicity against African green monkey Vero cells assessed as cell growth inhibition incubated for 72 hrs by sulforhodamine B assay; assay type: toxicity, cell-based, Chlorocebus sabaeus
[13] = Kinetic solubility of the compound at pH 2.0 at 200 uM incubated for 2 hrs under shaking condition by HPLC analysis; assay type: physicochemical; details: buffer, read-out: Kinetic_solubility
[14] = tested on: Plasmodium falciparum; assay: Antiplasmodial activity against PYR-resistant Plasmodium falciparum V1/S encoding QM DHFR infected in human erythrocytes assessed as inhibition of parasite growth by [3H]-hypoxanthine incorporation assay; assay type: functional, organism-based; details: Erythrocyte
[15] = Kinetic solubility of the compound at pH 4.5 at 200 uM incubated for 2 hrs under shaking condition by HPLC analysis; assay type: physicochemical; details: buffer, read-out: Kinetic_solubility
[16] = Metabolic stability in human liver microsomes assessed as intrinsic clearance measured upto 60 mins in presence of NADPH by LC-MS/MS analysis; assay type: ADME, Microsome; details: read-out: CLH
[17] = biological target: T2, Dihydrofolate reductase (Homo sapiens, UniProt P00374); assay: Inhibition of human DHFR using DHF as substrate assessed as inhibition constant in presence of NADPH by UV-Vis spectrometry analysis
T2 sequence (P00374 whole entry): T1 sequence (whole entry)

[18] = Distribution coefficient, log D of compound in n-octanol and saturated PBS at pH 7.4 at 100 uM incubated for 2 hrs under shaking condition by HPLC analysis; assay type: physicochemical
[19] = Kinetic solubility of the compound at pH 7.4 at 200 uM incubated for 2 hrs under shaking condition by HPLC analysis; assay type: physicochemical; details: buffer, read-out: Kinetic_solubility
[20] = Kinetic solubility of the compound at pH 6.5 at 200 uM incubated for 2 hrs under shaking condition by HPLC analysis; assay type: physicochemical; details: buffer, read-out: Kinetic_solubility
[21] = biological target: Bifunctional dihydrofolate reductase-thymidylate synthase (Plasmodium falciparum K1, UniProt P13922); assay: Inhibition of wild type Plasmodium falciparum DHFR using DHF as substrate assessed as inhibition constant in presence of NADPH by UV-Vis spectrometry analysis
[22] = Metabolic stability in rat liver microsomes assessed as intrinsic clearance measured upto 60 mins in presence of NADPH by LC-MS/MS analysis; assay type: ADME, Microsome; details: read-out: CLH
[23] = tested on: Plasmodium falciparum; assay: Binding affinity to Plasmodium falciparum apo-DHFR N51I/C59R/S108N/I164L quadruple mutant assessed as change in melting temperature by […] analysis
[24] = Half life in human; assay type: ADME
[25] = tested on: Plasmodium falciparum; assay: Binding affinity to Plasmodium falciparum DHFR N51I/C59R/S108N/I164L quadruple mutant assessed as change in melting temperature in presence of NADPH by […] analysis

Chain of Bifunctional dihydrofolate reductase-thymidylate synthase (Plasmodium falciparum K1) (P13922 whole entry, looked up): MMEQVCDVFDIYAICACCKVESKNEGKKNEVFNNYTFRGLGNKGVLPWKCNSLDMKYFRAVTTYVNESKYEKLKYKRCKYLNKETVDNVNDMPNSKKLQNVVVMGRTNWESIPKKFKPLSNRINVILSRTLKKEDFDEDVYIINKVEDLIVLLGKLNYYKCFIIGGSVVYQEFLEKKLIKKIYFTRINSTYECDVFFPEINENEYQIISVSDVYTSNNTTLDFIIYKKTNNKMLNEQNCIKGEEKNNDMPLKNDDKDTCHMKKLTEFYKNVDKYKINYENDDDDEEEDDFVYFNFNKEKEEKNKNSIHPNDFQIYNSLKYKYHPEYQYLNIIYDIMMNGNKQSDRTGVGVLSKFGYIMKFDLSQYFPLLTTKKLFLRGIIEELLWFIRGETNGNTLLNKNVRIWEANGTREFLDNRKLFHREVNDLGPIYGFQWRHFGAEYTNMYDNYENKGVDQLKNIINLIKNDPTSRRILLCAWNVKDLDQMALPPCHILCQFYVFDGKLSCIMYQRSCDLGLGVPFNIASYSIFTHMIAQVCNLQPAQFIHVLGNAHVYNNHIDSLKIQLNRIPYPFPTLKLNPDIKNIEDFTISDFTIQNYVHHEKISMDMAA
Chain of Bifunctional dihydrofolate reductase-thymidylate synthase (P13922 whole entry): as the sequence (P13922 whole entry, looked up) above

SMILES: O=C(O)c1cccc(-c2cccnc2)c1
- inhibition [1]: inactive
- inhibition [2]: 3.89%
- K [3]: 0.002 s⁻¹
- K [4]: 16.3 M⁻¹ s⁻¹
- inhibition [5]: inactive

SMILES: COc1cccc(-c2ccc(C(=O)O)cc2)c1
- fold change (FC) [6]: 2
- Activity [7]: Active
- inhibition [2]: 45.8%
- inhibition [8]: 37.8%
- inhibition [5]: inactive

SMILES: O=C(O)c1ccc(-c2ccncc2)cc1
- inhibition [2]: 10.1%
- inhibition [8]: 2.93%
- K [3]: 0.001 s⁻¹
- K [4]: 16.4 M⁻¹ s⁻¹
- inhibition [5]: inactive

SMILES: O=C(O)c1ccc(-n2cccc2)cc1
- inhibition [2]: 19.4%
- inhibition [8]: 8%
- K [3]: 0.008 s⁻¹
- K [4]: 14.6 M⁻¹ s⁻¹
- inhibition [5]: inactive

SMILES: COc1cccc(-c2ccc(C(=O)O)o2)c1
- inhibition [8]: 12.7%
- K [3]: 0.014 s⁻¹
- K [4]: 9.51 M⁻¹ s⁻¹
- inhibition [5]: inactive
- inhibition [9]: inactive

SMILES: CCc1nc(N)nc(N)c1Cc1ccc(-c2cccc(C(=O)OC)c2)cc1.Cl
- IC50 [10]: 0.72 µM
- Ki [11]: 0.00211 µM
- IC50 at 72 h [12]: 19.3 µM
- solubility kinetic at 2 h, 200 µM [13]: 186 µM
- IC50 [14]: 34.5 µM
- solubility kinetic at 2 h, 200 µM [15]: 183 µM
- microsomal CLint [16]: 625 µL/min/mg
- Ki [17]: 0.14 µM
- logD at 2 h, 100 µM [18]: 3.37
- solubility kinetic at 2 h, 200 µM [19]: 8.1 µM
- solubility kinetic at 2 h, 200 µM [20]: 8.8 µM
- Ki [21]: 0.00029 µM
- microsomal CLint [22]: 100 µL/min/mg

SMILES: O=C(O)c1ccc(-c2ccccc2)cn1
- inhibition [1]: inactive
- inhibition [2]: 7%
- K [3]: 0.037 s⁻¹
- K [4]: 24.5 M⁻¹ s⁻¹
- inhibition [5]: inactive
- ΔTm [23]: -1.2 °C

SMILES: CCc1nc(N)nc(N)c1Cc1ccc(-c2cccc(C(=O)O)c2)cc1.Cl
- IC50 [10]: 0.77 µM
- Ki [11]: 0.00196 µM
- IC50 at 72 h [12]: > 50 µM
- solubility kinetic at 2 h, 200 µM [13]: 192 µM
- IC50 [14]: 29.7 µM
- solubility kinetic at 2 h, 200 µM [15]: 11.4 µM
- microsomal CLint [16]: 4.92 µL/min/mg
- Ki [17]: 0.147 µM
- solubility kinetic at 2 h, 200 µM [19]: 29.9 µM
- solubility kinetic at 2 h, 200 µM [20]: 15.7 µM
- Ki [21]: 0.00029 µM
- microsomal CLint [22]: < 3 µL/min/mg

SMILES: CCc1nc(N)nc(N)c1Cc1cccc(-c2cccc(C(=O)O)c2)c1
- IC50 [10]: 4.14 µM
- Ki [11]: 0.00081 µM
- IC50 at 72 h [12]: > 50 µM
- IC50 [14]: 35 µM
- Ki [17]: 0.108 µM
- Ki [21]: 0.00023 µM

SMILES: CCc1nc(N)nc(N)c1Cc1ccc(-c2ccc(C(=O)OC)cc2)cc1.Cl
- IC50 [10]: 8.15 µM
- Ki [11]: 0.0417 µM
- IC50 at 72 h [12]: > 25 µM
- solubility kinetic at 2 h, 200 µM [13]: 154 µM
- IC50 [14]: > 25 µM
- solubility kinetic at 2 h, 200 µM [15]: 132 µM
- microsomal CLint [16]: 459 µL/min/mg
- Ki [17]: 0.423 µM
- logD at 2 h, 100 µM [18]: 3.49
- solubility kinetic at 2 h, 200 µM [19]: < 4 µM
- solubility kinetic at 2 h, 200 µM [20]: < 4 µM
- Ki [21]: 0.00106 µM
- microsomal CLint [22]: 764 µL/min/mg

SMILES: O=C(O)c1ccc(-c2ccccc2F)o1
- inhibition [1]: inactive
- inhibition [2]: 2.6%
- K [3]: 0.001 s⁻¹
- K [4]: 7.61 M⁻¹ s⁻¹
- inhibition [5]: inactive
- ΔTm [23]: -1.8 °C

SMILES: CCc1nc(N)nc(N)c1OCCCOc1ccccc1CCC(=O)O
- IC50 [10]: 0.005 µM
- Ki [11]: 0.00054 µM
- IC50 at 72 h [12]: > 100 µM
- solubility kinetic at 2 h, 200 µM [13]: 207 µM (≈ 74.6 µg/mL)
- IC50 [14]: 0.056 µM
- solubility kinetic at 2 h, 200 µM [15]: 200 µM (≈ 72 µg/mL)
- microsomal CLint [16]: < 3 µL/min/mg
- Ki [17]: 0.0174 µM
- logD at 2 h, 100 µM [18]: -0.095
- half-life [24]: < 20 h
- solubility kinetic at 2 h, 200 µM [19]: 201 µM (≈ 72.5 µg/mL)
- solubility kinetic at 2 h, 200 µM [20]: 204 µM (≈ 73.5 µg/mL)
- microsomal CLint [22]: < 3 µL/min/mg

SMILES: O=C(O)c1cccc(-c2ccccc2)n1
- inhibition [1]: inactive
- K [3]: 0.013 s⁻¹
- K [4]: 9.99 M⁻¹ s⁻¹
- inhibition [5]: inactive
- inhibition [9]: inactive

SMILES: Cc1ccc(-c2ccc(C(=O)O)cc2)o1
- ΔTm [25]: -2.3 °C
- inhibition [2]: 23.1%
- inhibition [8]: 27.4%
- K [3]: 0.019 s⁻¹
- K [4]: 25.4 M⁻¹ s⁻¹
- inhibition [5]: inactive

SMILES: O=C(O)c1ccccc1-c1ccncc1
- inhibition [1]: inactive
- Activity [7]: Active
- inhibition [5]: inactive
- inhibition [9]: inactive
